Like-named read-outs stand apart in the source and are kept apart here.
How the values were obtained:
[1] = test system: acetylcholine release from guinea pig hippocampus synaptosomes; assay: K+-evoked 3H-acetylcholine release from synaptosomes, effect of Aβs; type: cell-based; details: for IC50: read-out: ACh Release (IC50)
Procedure: Synaptosomes from guinea pig hippocampus were incubated with 0.1 μM ^3H-choline and then subjected to repeated washes to remove unincorporated ^3H-choline. The synaptosomes were treated with 65 mM K^+ for 30 seconds to elicit 3H-acetylcholine release.

Aβ aggregation = biological target: T1, Aβ aggregation (Homo sapiens, UniProt P05067); assay: Aβ aggregation assay on Synthaloid plates with labelled Aβ1-40; type: biochemical
T1 construct: 100 nM of fluo-Aβ1-40 in 100 μl of each well of the 96-well Synthaloid plate; purchased Amersham Pharmacia Biotech (125I-Aβ1-40); Advanced Bioconcepts (fluo-Aβ1-40)
T1 sequence (P05067 672-711 limits assumed): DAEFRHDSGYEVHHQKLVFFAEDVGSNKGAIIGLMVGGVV
Procedure: Aβs are known to form aggregates leading to the formation of amyloid plaques that are characteristic of Alzheimer's disease. […] We have validated this aggregation assay using both ^125I-Aβ1-40 and fluo-Aβ1-40 in a buffer containing 50 mM HEPES, pH 7.4, 0.1% BSA, 10% FCS and protease inhibitors. About 500 pM of ^125I-Aβ1-40 or 100 nM of fluo-Aβ1-40 in 100 μl of each well of the 96-well Synthaloid plate was allowed to incubate for 2.5 hr at room temperature in the presence or absence of inhibitors. At the end of the incubation, unbound protein in the wells was removed by three washes using the above buffer. The amount of bound protein which represented Aβ aggregation was measured either by scintillation counting or fluorescence measurements.

[2] = biological target: 206-216 stretch of the human α7 nAChR (Homo sapiens, UniProt P36544); details: inhibitors 1 uM to 10 uM
[3] = test system: Aβ1-42 mediated inhibition of ACh release in rat cortical synaptosomes; assay: Amelioration of the Aβ1-42 mediated inhibition of ACh release in rat cortical synaptosomes; type: cell-based
[4] = 10 μM, read-out: % Inh Agg. (conc μM)

| Molecule | % Inh Agg. (conc μM) (Aβ aggregation; 10 μM) | % α7 nAChR 206-216 Binding ([2]; 125I-β-amyloid1-40 50 pM) | % ACh Release at 10 μM [1] | further results |
| --- | --- | --- | --- | --- |
| CCCN(CCC)C1Cc2c(OCC=C(C)C)ccc(O)c2CC1C (racemic) [Compound 44] | 50-90 (10) % | 23% | 0% |  |
| C#CCN(CCC)C1Cc2c(O)ccc(O)c2CC1C (racemic) [Compound 32] | 69 (10) % |  |  |  |
| Ac-GIPGKRSERFYECCK-NH2 (cysteine pairing not given here) [human alpha-7 nAChR200-214, peptide stretch of the human alpha-7 nAChR] |  |  |  | Amelioration of the Aβ1-42 Meditated Inhibition of ACh Release in Rat Cortical Synaptosomes (%) ([3]; at 1 μM): 71% at 1 μM; Amelioration of the Aβ1-42 Meditated Inhibition of ACh Release in Rat Cortical Synaptosomes (%) ([3]; at 10 μM): 79% at 10 μM |
| CCCN(CCCc1ccccc1)C1Cc2c(OC)ccc(OC)c2CC1C (racemic) [Compound 19] |  |  |  | % Inh Agg. (conc μM) (Aβ aggregation; 5 μM): 30 (5) % |
| C#CCN(CCC)C1Cc2c(OC)ccc(OC)c2CC1C (racemic) [Compound 31, 5,8-Dimethoxy-cis and trans-2-(N-propyl-N-propargyl)amino-3-methyl-1,2,3,4-tetrahydronaphthalene] | 34 (10) % |  |  |  |
| CCCN(CCC)C1Cc2c(OC)ccc(OC)c2CC1C (single isomer, unassigned) [Compound 18] | 50-90 (10) % |  | 70% | IC50 [1]: 10000 nM |
| CCCN(CCC)C1Cc2c(OC)ccc(OC)c2CC1C (stereo not drawn) [Compound 8, 5,8-Dimethoxy-trans-2-di(N-propylamino)-3-methyl-1,2,3,4-tetrahydronaphthalene] |  |  |  | IC50 ([1]; Cavia porcellus): 700 nM; inhibition at 10 µM (Aβ aggregation; [4]): 50 to 90% |
| CCCN(CCC)C1Cc2c(O)ccc(O)c2CC1C (centres unmarked) [Compound 16] | 50-90 (10) % |  |  | IC50 [1]: 10000 nM; % α7 nAChR 206-216 Binding ([2]; […]): 44% |
| CCCN(CCC)C1Cc2c(O)ccc(OC)c2CC1C (stereo not drawn) [Compound 46, 5-Methoxy-8-hydroxy-trans-2-di(N-propylamino)-3-methyl-1,2,3,4-tetrahydronaphthalene] |  |  | 0% | inhibition at 10 µM (Aβ aggregation; [4]): 50 to 90%; % α7 nAChR 206-216 Binding ([2]; […]): 18% |
| CCCN(C)C1Cc2c(OC)ccc(OC)c2CC1C (centres unmarked) [Compound 52] |  |  | 0% | inhibition at 10 µM (Aβ aggregation; [4]): 60%; % α7 nAChR 206-216 Binding ([2]; […]): 0% |
| 5,8-bis(Diphenylphosphinoyl)-3-methyl-1,2,3,4-tetrahydronaphthalene [Compound 59] | <30 (10) % |  | 25% | % α7 nAChR 206-216 Binding ([2]; […]): 72% |
| CCCN(CCC)C1Cc2c(OC)ccc(OC)c2CC1C (single isomer, unassigned) [Compound 17] | >90 (10) % |  | 63% | IC50 [1]: 1000 nM |
| C#CCN(CCC)C1Cc2c(O)ccc(O)c2CC1C (racemic) [Compound 34] | 69 (10) % |  |  |  |
| CCCN(C)C1Cc2c(O)ccc(O)c2CC1C (centres unmarked) [Compound 53] |  |  | 18% | inhibition at 10 µM (Aβ aggregation; [4]): 50 to 90%; % α7 nAChR 206-216 Binding ([2]; […]): 0% |
| SERFYECCKEP [206-216 peptide without Ac and NH2 end groups] |  |  |  | Amelioration of the Aβ1-42 Meditated Inhibition of ACh Release in Rat Cortical Synaptosomes (%) ([3]; at 1 μM): 10% at 1 μM; Amelioration of the Aβ1-42 Meditated Inhibition of ACh Release in Rat Cortical Synaptosomes (%) ([3]; at 10 μM): 22% at 10 μM |
| CCCNC1Cc2c(OC)ccc(OC)c2CC1C (centres unmarked) [Compound 7, 5,8-Dimethoxy-2-N-propylamino-3-methyl-1,2,3,4-tetrahydronaphthalene] |  |  |  | inhibition at 100 µM (Aβ aggregation; 100 μM, read-out: % Inh Agg. (conc μM)): 50% |
| CCCN(CCC)C1Cc2c(O)ccc(OCC=C(C)C)c2CC1C (racemic) [Compound 43] | 50-90 (10) % | 10% | 0% |  |
| CCCN(CC1CCCCC1)C1Cc2c(OC)ccc(OC)c2CC1C (racemic) [Compound 21] |  |  |  | % Inh Agg. (conc μM) (Aβ aggregation; 5 μM): 20 (5) % |
| CCCN(Cc1cccs1)C1Cc2c(O)ccc(O)c2CC1C (racemic) [Compound 30] |  |  |  | % Inh Agg. (conc μM) (Aβ aggregation; 5 μM): 38 (5) % |
| CCCN(CC1CCCCC1)C1Cc2c(O)ccc(O)c2CC1C (racemic) [Compound 22] |  |  |  | % Inh Agg. (conc μM) (Aβ aggregation; 50 μM): 38 (50) % |
| CCCN(CCC)C1Cc2c(OC)ccc(O)c2CC1C (stereo not drawn) [Compound 45, 5-Hydroxy-8-methoxy-trans-2-di(N-propylamino)-3-methyl-1,2,3,4-tetrahydronaphthalene] |  |  | 78% | inhibition at 78 µM (Aβ aggregation; 78 μM as printed, read-out: % Inh Agg. (conc μM)): 30 to 50% |
| CCCN(CCC)C1Cc2c(O)ccc(O)c2CC1C (centres unmarked) [Compound 15] |  |  |  | IC50 [1]: 250 nM; inhibition at 10 µM (Aβ aggregation; [4]): 50 to 90%; % α7 nAChR 206-216 Binding ([2]; […]): 85% |
| CCCN(CCC)C1Cc2c(OC(=O)C(C)(C)C)ccc(O)c2CC1C (centres unmarked) [Compound 51] | 30-50 (10) % | 0% | 54% |  |
| CCCN(CCCc1ccccc1)C1Cc2c(O)ccc(O)c2CC1C (racemic) [Compound 20] |  |  |  | % Inh Agg. (conc μM) (Aβ aggregation; 5 μM): 39 (5) % |

The next lines start with results.

| % Inh Agg. (conc μM) (Aβ aggregation; 10 μM) | % α7 nAChR 206-216 Binding ([2]; 125I-β-amyloid1-40 50 pM) | Molecule | % ACh Release at 10 μM [1] | further results |
| --- | --- | --- | --- | --- |
| <30 (10) % | 63% | C#CCN(CCC)C1Cc2c(OP(=O)(c3ccccc3)c3ccccc3)ccc(OP(=O)(c3ccccc3)c3ccccc3)c2CC1C (centres unmarked) [Compound 57] | 11% |  |
| <30 (10) % |  | CCCN(Cc1ccc(I)cc1)C1Cc2c(O)ccc(O)c2CC1C (racemic) [Compound 36] |  |  |
| <30 (10) % |  | CCCN(Cc1ccc(O)cc1)C1Cc2c(O)ccc(O)c2CC1C (racemic) [Compound 38] |  |  |
| 75 (10) % |  | CCCN(Cc1ccccc1Cl)C1Cc2c(O)ccc(O)c2CC1C (racemic) [Compound 40] |  |  |
| <30 (10) % |  | CCCCOc1ccc(CN(CCC)C2Cc3c(OC)ccc(OC)c3CC2C)cc1 (racemic) [Compound 37] |  |  |
| <30 (10) % | 78% | C#CCN(CCC)C1Cc2c(O)ccc(OP(=O)(c3ccccc3)c3ccccc3)c2CC1C (centres unmarked) [Compound 56] | 8% |  |
| 50-90 (10) % | 34% | CCCN(CCCSC)C1Cc2c(O)ccc(O)c2CC1C (racemic) [Compound 28] |  |  |
|  | 48% | CCCN(Cc1ccccc1)C1Cc2c(OC)ccc(OC)c2CC1C (racemic) [Compound 25] |  |  |
|  | 54% | COc1ccc(OC)c2c1C[C@@H](N1CCOCC1)[C@@H](C)C2 (relative stereo) [Compound 23, 5,8-Dimethoxy-cis-2-(1-morpholinyl)-3-methyl-1,2,3,4-tetrahydronaphthalene] |  |  |
| 38 (10) % |  | CCCN(Cc1ccc(I)cc1)C1Cc2c(OC)ccc(OC)c2CC1C (racemic) [Compound 35] |  |  |
| 85 (10) % |  | CCCN(Cc1ccccc1Cl)C1Cc2c(OC)ccc(OC)c2CC1C (racemic) [Compound 39] |  |  |
| 50-90 (10) % | 0% | CCCN(CCC(C)CCC=C(C)C)C1Cc2c(O)ccc(O)c2CC1C (centres unmarked) [Compound 55] | 15% |  |
|  | 43% | CC1Cc2c(O)ccc(O)c2CC1N1CCOCC1 (stereo not drawn) [Compound 24, 5,8-Dihydroxy-cis-2-(1-morpholinyl)-3-methyl-1,2,3,4-tetrahydronaphthalene] |  |  |
| <30 (10) % | 42% | CCCN(CCC)C1Cc2c(O)ccc(OP(=O)(c3ccccc3)c3ccccc3)c2CC1C (centres unmarked) [Compound 58] | 18% |  |
| <30 (10) % | 64% | CCCN(Cc1ccccc1)C1Cc2c(O)ccc(O)c2CC1C (racemic) [Compound 26] |  |  |
|  | 0% | COc1ccc(OC)c2c1C[C@H](C)[C@H](Nc1ccc(OCCN3CCCCC3)cc1)C2 (relative stereo) [Compound 60, 5,8-Dimethoxy-cis-2-[N-(4-(2-(1-piperidinyl)ethoxy)phenyl)]amino-3-methyl-1,2,3,4-tetrahydronaphthalene] | 24% | % Inh Agg. (result in words) (Aβ aggregation; concentration not given): very active |
| <30(10) % | 19% | CCCN(Cc1ccc(C)cc1)C1Cc2c(OC)ccc(OC)c2CC1C (racemic) [Compound 41] | 14% |  |
| <30 (10) % | 2% | COC(=O)[C@H](C)NC1Cc2c(OC)ccc(OC)c2CC1C (stereo partly drawn) [Compound 48, 5,8-Dimethoxy-2-[N-(L-alanylmethyl ester)]-3-methyl-1,2,3,4-tetrahydronaphthalene] | 0% |  |
| 60 (10) % |  | CCCN(Cc1ccc(C)cc1)C1Cc2c(O)ccc(O)c2CC1C (racemic) [Compound 42] |  |  |
| 50-90 (10) % | 0% | CCCN(CCC(C)CCC=C(C)C)C1Cc2c(OC)ccc(OC)c2CC1C (centres unmarked) [Compound 54] | 0% |  |
| 12 (10) % |  | CCCN(Cc1cccs1)C1Cc2c(OC)ccc(OC)c2CC1C (racemic) [Compound 29] |  |  |

Source: patent publication US6441049B2, “Method of treating neurodegenerative disorders via inhibition of amyloid beta peptide binding” (Ortho-McNeil Pharmaceutical, Inc., priority 1998, dated 2002)
